In this assay the target is T1, RORγt (Homo sapiens, UniProt P51449).
T1 construct: […]
T1 sequence (P51449 269-508 limits assumed): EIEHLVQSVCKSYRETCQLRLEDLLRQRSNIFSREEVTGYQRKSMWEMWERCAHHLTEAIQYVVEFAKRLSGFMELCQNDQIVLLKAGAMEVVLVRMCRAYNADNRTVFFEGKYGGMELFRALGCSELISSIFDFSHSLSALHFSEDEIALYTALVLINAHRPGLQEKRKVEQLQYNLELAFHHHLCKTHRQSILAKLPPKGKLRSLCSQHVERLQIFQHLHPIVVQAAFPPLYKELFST
Put plainly: Fluorescence resonance energy transfer (FRET) test, inhibitory activity of RORγt. It is filed as biochemical.

[1] abbreviates: FRET, B-RORγt LBD / Biotin-SRC1, read-out: IC50.

Like-named read-outs stand apart in the source and are kept apart here.

The term IC50 denotes the concentration that inhibits the measured activity by half.

As to `CCS(=O)(=O)c1ccc([C@H](CC#N)NC(=O)c2ccc(N3C[C@@H](Oc4ccc(OC(F)(F)F)cn4)C[C@H]3COC(F)F)nc2)cc1` [Example 18], under setting [1], the IC50 worked out at 25.9 nM.

`CCS(=O)(=O)c1ccc([C@H](CC#N)NC(=O)c2ccc(N3C[C@@H](Oc4ccc(OC(F)F)nc4)C[C@H]3COC(F)F)cc2)cc1` [Example 9, N-((S)-2-cyano-1-(4-(ethylsulfonyl)phenyl)ethyl)-4-((2S,4S)-2-((difluoromethoxy)methyl)-4-((6-(difluoromethoxy)pyridin-3-yl)oxy)pyrrolidin-1-yl)benzamide]: the IC50 under setting [1] was found to be 25.8 nM.

Regarding `[2H]C([2H])([2H])OC[C@@H]1C[C@H](Oc2ccc(C(F)(F)F)cc2)CN1c1ccc(C(=O)N[C@@H](CC#N)c2ccc(S(=O)(=O)CC)cc2)cc1` [Example 151, N—((S)-2-cyano-1-(4-(ethylsulfonyl)phenyl)ethyl)-4-((2S,4S)-2-((3,3,3-d3-methoxy)methyl)-4-(4-(trifluoromethyl)phenoxy)pyrrolidin-1-yl)benzamide], under setting [1], the IC50 was 8.7 nM.

Turning to `CCS(=O)(=O)c1ccc([C@H](CC#N)NC(=O)c2ccc(N3C[C@H](O)C[C@H]3COC(F)F)cc2)cc1` [Example 131, N—((S)-2-cyano-1-(4-(ethylsulfonyl)phenyl)ethyl)-4-((2S,4R) ((difluoromethoxy)methyl)-4-hydroxypyrrolidin-1-yl)benzamide], the IC50 under setting [1] stood at 120 nM.

On to `CCS(=O)(=O)c1ccc([C@H](CC#N)NC(=O)c2ccc(N3C[C@@H](Oc4ccc(C(O)(C(F)(F)F)C(F)(F)F)cc4)C[C@H]3COC(F)F)cc2)cc1` [Example 26, N-((S)-2-cyano-1-(4-(ethylsulfonyl)phenyl)ethyl)-4-((2S,4S)-2-((difluoromethoxy)methyl)-4-(4-(1,1,1,3,3,3-hexafluoro-2-hydroxypropan-2-yl)phenoxy)pyrrolidin-1-yl)benzamide], for which the half-inhibitory concentration (IC50) under setting [1] stood at 23 nM.

Turning to `CCS(=O)(=O)c1ccc([C@H](CC#N)NC(=O)c2ccc(N3CC(Oc4ccc(OC)cc4)C[C@H]3COC(F)F)cc2)cc1` (stereo in doubt) [Example 63, N-((S)-2-cyano-1-(4-(ethylsulfonyl)phenyl)ethyl)-4-((2S,4S)-2-((difluoromethoxy)methyl)-4-(4-methoxyphenoxy)pyrrolidin-1-yl)benzamide], under setting [1], the IC50 was 7 nM.

Regarding `CCS(=O)(=O)c1ccc([C@H](CC#N)NC(=O)c2ccc(N3CC(Oc4ccc(C(F)(F)F)cc4)C[C@H]3COC(F)(F)F)cc2)cc1` (stereo in doubt) [Example 70, N-((S)-2-cyano-1-(4-(ethylsulfonyl)phenyl)ethyl)-4-((2S,4S)-2-((trifluoromethoxy)methyl)-4-(4-(trifluoromethyl)phenoxy)pyrrolidin-1-yl)benzamide], the IC50 under setting [1] was determined as 26 nM.

As for `CCS(=O)(=O)c1ccc([C@H](CC#N)NC(=O)c2ccc(N3C[C@@H](Oc4ccc5c(c4)OC(F)(F)O5)C[C@H]3COC(F)F)cc2)cc1` [Example 78, N—((S)-2-cyano-1-(4-(ethylsulfonyl)phenyl)ethyl)-4-((2S,4S)-4-((2,2-difluorobenzo[d][1,3]dioxol-5-yl)oxy)-2-((difluoromethoxy)methyl)pyrrolidin-1-yl)-benzamide], under setting [1], the IC50 was 12 nM.

`CCS(=O)(=O)c1ccc([C@@H](CC#N)NC(=O)c2ccc(N3C[C@@H](Oc4ccc(OC(F)(F)F)cn4)C[C@H]3COC(F)F)cc2)cc1` [Example 17, N-((R)-2-cyano-1-(4-(ethylsulfonyl)phenyl)ethyl)-4-((2S,4S)-2-((difluoromethoxy)methyl)-4-((5-(trifluoromethoxy)pyridin-2-yl)oxy)pyrrolidin-1-yl)benzamide]: the IC50 under setting [1] stood at 14.9 nM.

For the compound `CCS(=O)(=O)c1ccc([C@H](CCCC(=O)O)NC(=O)c2ccc(N3C[C@@H](Oc4ccc(C(F)(F)F)cc4)C[C@H]3COC(F)F)cc2)cc1` [Example 106, (S)-5-(4-((2S,4S)-2-((difluoromethoxy)methyl)-4-(4-(trifluoromethyl)phenoxy)pyrrolidin-1-yl)benzoylamino)-5-(4-(ethylsulfonyl)phenyl)valeric Acid], the IC50 under setting [1] was 52 nM.

With `CCS(=O)(=O)c1ccc([C@H](CC(=O)NC)NC(=O)c2ccc(N3C[C@@H](Oc4ccc(C(F)(F)F)cc4)C[C@H]3COC(F)F)cc2)cc1` [Example 94], the IC50 under setting [1] was 31 nM.

Turning to `CCS(=O)(=O)c1ccc([C@H](CC#N)NC(=O)c2ccc(N3CC(Oc4ccc(C(F)(F)F)cc4)C[C@H]3COC(F)F)cc2)cc1` (single isomer, unassigned) [Example 74], under setting [1], the IC50 was 70 nM.

On to `CCS(=O)(=O)c1ccc([C@H](CC#N)NC(=O)c2ccc(N3C[C@@H](Oc4ccc(-n5ccnc5)cc4)C[C@H]3COC(F)F)cc2)cc1` [Example 5, 4-((2S,4S)-4-(4-(1H-imidazol-1-yl)phenoxy)-2-((difluoromethoxy)methyl)pyrrolidin-1-yl)-N-((S)-2-cyano-1-(4-(ethylsulfonyl)phenyl)ethyl)benzamide], for which the half-inhibitory concentration (IC50) under setting [1] is 36.1 nM.

In the case of `CCS(=O)(=O)c1ccc([C@H](CC#N)NC(=O)c2ccc(C(O)(C(F)(F)F)C(F)(F)F)cc2)cc1` [Example 143, (S)—N-(2-cyano-1-(4-(ethylsulfonyl)phenyl)ethyl)-4-(1,1,1,3,3,3-hexafluoro-2-hydroxypropan-2-yl)benzamide], the IC50 under setting [1] came out at 104 nM.

For the compound `CCS(=O)(=O)c1ccc([C@@H](CC#N)NC(=O)c2ccc(N3C[C@@H](Oc4ccc(OC(F)F)cc4)C[C@H]3COC(F)F)cc2)cc1` [Example 12, N-((R)-2-cyano-1-(4-(ethylsulfonyl)phenyl)ethyl)-4-((2S,4S)-2-((difluoromethoxy)methyl)-4-(4-(difluoromethoxy)phenoxy)pyrrolidin-1-yl)benzamide], the IC50 under setting [1] was found to be 21.5 nM.

Regarding `CCS(=O)(=O)c1ccc([C@H](COCC(=O)O)NC(=O)c2ccc(N3C[C@@H](Oc4ccc(-n5cccn5)cn4)C[C@H]3COC(F)F)nc2)cc1` [Example 175, 2-((R)-2-(6-((2S,4S)-4-((5-(1H-pyrazol-1-yl)pyridine-2-yl)oxy)-2-((difluoromethoxy)methyl)pyrrolidin-1-yl)nicotinylamino)-2-(4-(ethylsulfonyl)phenyl)ethoxy)acetic Acid], the concentration for half-maximal inhibition (IC50) under setting [1] was 39.2 nM.

`[2H]C([2H])(NC(=O)c1ccc(N2C[C@@H](Oc3ccc(OC(F)(F)F)cn3)C[C@H]2COC(F)F)cc1)c1ccc(S(=O)(=O)CC)cc1` [Example 169, N-(Dideuterium(4-(ethylsulfonyl)phenyl)methyl)-4-((2S,4S)-2-((difluoromethoxy)methyl)-4-((5-(trifluoromethoxy)pyridin-2-yl)oxy)pyrrolidin-1-yl) benzamide] gave a half-inhibitory concentration (IC50) of 6 nM.

Consider `CCS(=O)(=O)c1ccc([C@H](CC#N)NC(=O)c2ccc(N3CC(Oc4ccc(C(F)(F)F)nc4)C[C@H]3COC(F)F)cc2)cc1` (stereo in doubt) [Example 57, N-((S)-2-cyano-1-(4-(ethylsulfonyl)phenyl)ethyl)-4-((2S,4S)-2-((difluoromethoxy)methyl)-4-((6-(trifluoromethyl)pyridine-3-yl)oxy)pyrrolidin-1-yl)benzamide], for which the IC50 under setting [1] was 41 nM.

Consider `CCS(=O)(=O)c1ccc([C@H](COCCOC)NC(=O)c2ccc(N3C[C@@H](Oc4ccc(C(F)(F)F)cc4)C[C@H]3COC(F)F)cc2)cc1` [Example 104], for which, under setting [1], the IC50 amounted to 12 nM.

As for `CCOC[C@@H]1C[C@H](Oc2ccc(C(F)(F)F)cc2)CN1c1ccc(C(=O)N[C@H](CC#N)c2ccc(S(=O)(=O)CC)cc2)cc1` [Example 77, N—((R)-2-cyano-1-(4-(ethylsulfonyl)phenyl)ethyl)-4-((2S,4S)-2-(ethoxymethyl)-4-(4-(trifluoromethyl)phenoxy)-1-pyrrolidine)benzamide], under setting [1], the IC50 was 7 nM.

In the case of `CCS(=O)(=O)c1ccc([C@H](CC(=O)N(C)C)NC(=O)c2ccc(N3C[C@@H](Oc4ccc(C(F)(F)F)cc4)C[C@H]3COC(F)F)cc2)cc1` [Example 95], the IC50 under setting [1] came out at 77 nM.

Turning to `CCS(=O)(=O)c1ccc([C@H](CC#N)NC(=O)c2ccc(N3C[C@@H](Oc4ccc(OC)nc4)C[C@H]3COC(F)F)cc2)cc1` [Example 10, N-((S)-2-cyano-1-(4-(ethylsulfonyl)phenyl)ethyl)-4-((2S,4S)-2-((difluoromethoxy)methyl)-4-((6-methoxypyridine-3-yl)oxy)pyrrolidin-1-yl)benzamide], the IC50 under setting [1] is 19 nM.

On to `CCS(=O)(=O)c1ccc([C@H](CC#N)NC(=O)c2cnc(N3CC(Oc4ccc(C(F)(F)F)cc4)C[C@H]3COC(F)(F)F)nc2)cc1` (stereo in doubt) [Example 72, N-((S)-2-cyano-1-(4-(ethylsulfonyl)phenyl)ethyl)-2-((2S,4S)-2-((trifluoromethoxy)methyl)-4-(4-(trifluoromethyl)phenoxy)pyrrolidin-1-yl)pyrimidine-5-carboxamide], for which the IC50 under setting [1] came out at 34 nM.

Turning to `CCS(=O)(=O)c1ccc([C@H](CC#N)NC(=O)c2ccc(N3C[C@@H](Oc4ccc(OC(C)C)nc4)C[C@H]3COC(F)F)cc2)cc1` [Example 20, N-((S)-2-cyano-1-(4-(ethylsulfonyl)phenyl)ethyl)-4-((2S,4S)-2-((difluoromethoxy)methyl)-4-((6-isopropoxypyridin-3-yl)oxy)pyrrolidin-1-yl)benzamide], the IC50 under setting [1] turned out to be 30 nM.

Take `CCC(F)(F)OC[C@@H]1CC[C@H](c2ccc(C(F)(F)F)cc2)CN1c1ccc(C(=O)N[C@H](CC#N)c2ccc(S(=O)(=O)CC)cc2)cc1` [Example 110-1, N—((R)-2-cyano-1-(4-(ethylsulfonyl)phenyl)ethyl)-4-((2S,5R)-2-((1,1-difluoropropoxy)methyl)-5-(4-(trifluoromethyl)phenyl)piperidin-1-yl)benzamide]: under setting [1], the IC50 was found to be 19 nM.

`CCS(=O)(=O)c1ccc([C@H](CC#N)NC(=O)c2ccc(N3C[C@@H](Oc4ccc(F)cc4)C[C@H]3COC(F)F)cc2)cc1` [Example 28, N-((S)-2-cyano-1-(4-(ethylsulfonyl)phenyl)ethyl)-4-((2S,4S)-2-((difluoromethoxy)methyl)-4-(4-fluorophenoxy)pyrrolidin-1-yl)benzamide]: the IC50 under setting [1] is 24 nM.

The values are drawn from patent US20230121086A1, “RORgT INHIBITOR, PREPARATION METHOD THEREOF AND USE THEREOF” (SUNSHINE LAKE PHARMA CO., LTD., priority 2020, published 2023).
